From patent publication US8217023B2, “19-nor-vitamin D analogs with 1,2- or 3,2-cyclopentene ring” (Wisconsin Alumni Research Foundation, priority 2009, dated 2012)
pEC50, pKi: −log10 of the molar value. “Also recorded” adds a separate entry of the source. Like-named read-outs stand apart in the source and are kept apart here.

Columns and labels:
[1] = system: 24-hydroxylase (24Ohase) gene promoter in ROS 17/2.8 (bone) cells; experiment: In vitro transcription assay (24-hydroxylase promoter luciferase reporter); type: cell-based; conditions: for pEC50: 24-hydroxylase (CYP-24) promoter driving luciferase reporter, read-out: EC50, transcriptional activity in bone cells; for transcriptional activity in bone cells (in words): FIG. 3
Protocol: Transcription activity was measured in ROS 17/2.8 (bone) cells that were stably transfected with a 24-hydroxylase (24Ohase) gene promoter upstream of a luciferase reporter gene (Arbour et al., 1998). Cells were given a range of doses. Sixteen hours after dosing the cells were harvested and luciferase activities were measured using a luminometer.
RLU=relative luciferase units.

[2] = system: Human promyelocytic leukemia (HL60) cells; experiment: HL-60 differentiation (nitro blue tetrazolium reduction); type: cell-based; conditions: for pEC50: HL-60 cells into monocytes, read-out: EC50, HL-60 cell differentiation
Protocol: The study drugs were dissolved in ethanol and the concentrations determined using UV spectrophotometry. Serial dilutions were prepared so that a range of drug concentrations could be tested without changing the final concentration of ethanol (≦0.2%) present in the cell cultures.
Human promyelocytic leukemia (HL60) cells were grown in RPMI-1640 medium containing 10% fetal bovine serum. The cells were incubated at 37° C. in the presence of 5% CO2.
HL60 cells were plated at 1.2×10^5 cells/ml. Eighteen hours after plating, cells in duplicate were treated with drug. Four days later, the cells were harvested and a nitro blue tetrazolium reduction assay was performed (Collins et al., 1979; J. Exp. Med. 149:969-974). The percentage of differentiated cells was determined by counting a total of 200 cells and recording the number that contained intracellular black-blue formazan deposits. Verification of differentiation to monocytic cells was determined by measuring phagocytic activity (data not shown).

[3] = target: T1, full-length recombinant rat vitamin D receptor (Rattus norvegicus, UniProt P13053); experiment: Vitamin D receptor binding (competition with [3H]-1,25(OH)2D3)
T1 construct: Full-length recombinant rat receptor was expressed in E. coli; histidine tag (C); made in house; host or cells: E. coli BL21 (DE3) Codon Plus RTL
T1 sequence (P13053 1-423): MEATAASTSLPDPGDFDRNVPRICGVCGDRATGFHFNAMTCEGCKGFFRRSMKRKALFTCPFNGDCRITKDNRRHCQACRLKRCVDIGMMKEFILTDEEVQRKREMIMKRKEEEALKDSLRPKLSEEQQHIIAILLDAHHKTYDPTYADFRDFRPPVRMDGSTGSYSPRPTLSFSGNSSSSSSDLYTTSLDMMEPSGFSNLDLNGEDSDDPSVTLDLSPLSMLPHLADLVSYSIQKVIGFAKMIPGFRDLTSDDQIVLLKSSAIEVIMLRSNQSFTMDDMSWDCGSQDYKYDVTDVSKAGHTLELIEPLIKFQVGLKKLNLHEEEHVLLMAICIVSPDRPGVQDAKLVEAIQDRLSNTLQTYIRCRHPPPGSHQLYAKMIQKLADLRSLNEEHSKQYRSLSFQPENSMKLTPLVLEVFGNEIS
Protocol: Full-length recombinant rat receptor was expressed in E. coli BL21 (DE3) Codon Plus RTL cells and purified to homogeneity using two different column chromatography systems. The first system was a nickel affinity resin that utilizes the C-terminal histidine tag on this protein. The protein that was eluted from this resin was further purified using ion exchange chromatography (S-Sepharose Fast Flow). Aliquots of the purified protein were quick frozen in liquid nitrogen and stored at −80° C. until use. For use in binding assays, the protein was diluted in TEDK50 (50 mM Tris, 1.5 mM EDTA, pH7.4, 5 mM DTT, 150 mM KCl) with 0.1% Chaps detergent. The receptor protein and ligand concentration were optimized such that no more than 20% of the added radiolabeled ligand was bound to the receptor.
Radiolabeled and unlabeled ligands were added to 100 mcl of the diluted protein at a final ethanol concentration of ≦10%, mixed and incubated overnight on ice to reach binding equilibrium. The following day, 100 mcl of hydroxylapatite slurry (50%) was added to each tube and mixed at 10-minute intervals for 30 minutes. The hydroxylapaptite was collected by centrifugation and then washed three times with Tris-EDTA buffer (50 mM Tris, 1.5 mM EDTA, pH 7.4) containing 0.5% Titron X-100. After the final wash, the pellets were transferred to scintillation vials containing 4 ml of Biosafe II scintillation cocktail, mixed and placed in a scintillation counter. Total binding was determined from the tubes containing only radiolabeled ligand.

Row | SMILES | pEC50 [1] | pEC50 [2] | transcriptional activity in bone cells (in words) [1] | HL-60 cell differentiation activity (in words) ([2]; FIG. 2) | pEC50 ([2]; Homo sapiens) | VDR binding activity (in words) ([3]; FIG. 1) | transcription of the 24-hydroxylase gene, times less potent than 1,25-(OH)2D3 ([1]; relative to 1,25-(OH)2D3) | gene transactivation, lower potency than the native hormone ([1]; relative to the native hormone) | HL-60 cell differentiation, times less potent than the natural hormone ([2]; relative to the natural hormone) | pKi ([3]; full-length recombinant rat vitamin D receptor, read-out: Ki, competition with [3H]-1,25(OH)2D3 for binding to VDR) | VDR affinity, times less potent than 1,25-(OH)2D3 ([3]; relative to 1,25-(OH)2D3)
1 | C=C1/C(=C\C=C2/CCC[C@]3(C)[C@@H]([C@H](C)CCCC(C)(C)O)CC[C@@H]23)C[C@@H](O)C[C@@H]1O [1α,25-dihydroxyvitamin D3, reference compound] | 9.70 | 8.70 |  |  |  |  |  |  |  |  | 
2 | C[C@H](CCCC(C)(C)O)C1CCC2/C(=C/C=C3\C[C@@H]4CCC=C4[C@H](O)C3)CCC[C@@]21C (stereo partly drawn) [DO-REVA, 1,2-cyclopentene-25-hydroxy-19-nor-vitamin D3] | < 6.00 |  | weak transcriptional activity; also recorded: measurable transcription activity at the higher concentrations tested; also recorded: measurable transcriptional activity at the higher concentrations tested | little to no ability to induce differentiation; also recorded: little to no cellular differentiation activity | < 6.00 | little to no binding affinity; also recorded: little to no receptor binding activity |  |  |  |  | 
3 | C[C@H](CCCC(C)(C)O)C1CCC2/C(=C/C=C3/C[C@@H]4CCC=C4[C@H](O)C3)CCC[C@@]21C (stereo partly drawn) [DO-REVB, 3,2-cyclopentene-1α-25-dihydroxy-19-nor-vitamin D3] | 8.00 |  | weak transcriptional activity |  | 7.52 |  | ~20 times | 2 fold | ~10 times | 8.70 | ~20 times
